Source: ChEMBL document CHEMBL1141916, “Synthesis and anticonvulsant activity of new 2-substituted-5-(2-benzyloxyphenyl)-1,3,4-oxadiazoles” (Bioorg Med Chem Lett, 2005)

Columns and labels:
[1] = species: Mus musculus; experiment: animal or person
[2] = species: Mus musculus; experiment: animal or person; remark: listed apart in the source
Description: Effective dose against pentylenetetrazole (PTZ) induced anticonvulsant activity in presence of flumazenil at 10 mg/kg in mice; Range: 1.1-2

[3] = species: Mus musculus; experiment: Effective dose against pentylenetetrazole (PTZ) induced anticonvulsant activity in mice; assay type: functional
[4] = species: Mus musculus; experiment: Effective dose against maximal electroshock (MES) induced convulsants in mice; assay type: functional
[5] = Lethal dose tested against mice; assay type: toxicity; conditions: mouse, in vivo
[6] = test system: Mus musculus; experiment: Effective dose against pentylenetetrazole (PTZ) induced anticonvulsant activity in presence of flumazenil at 10 mg/kg in mice; range: 1.5-4.1; assay type: functional

| SMILES | ED50 [1] | ED50 [2] | ED50 [3] | ED50 [4] | LD50 [5] | ED50 [6] |
| --- | --- | --- | --- | --- | --- | --- |
| CN1C(=O)CN=C(c2ccccc2)c2cc(Cl)ccc21 [DIAZEPAM] | 2.6 mg/kg | 2 mg/kg | 1.4 mg/kg | 1.8 mg/kg | – | – |
| Nc1nnc(-c2ccccc2OCc2ccc(Cl)cc2)o1 | – | – | > 100 mg/kg | > 100 mg/kg | > 300 mg/kg | – |
| CCSc1nnc(-c2ccccc2OCc2ccccc2)o1 | – | – | > 100 mg/kg | > 100 mg/kg | > 300 mg/kg | – |
| Sc1nnc(-c2ccccc2OCc2ccccc2)o1 | – | – | > 100 mg/kg | ≥ 100 mg/kg | > 300 mg/kg | – |
| Nc1nnc(-c2ccccc2OCc2ccccc2)o1 | – | – | 85.2 mg/kg | 63.2 mg/kg | > 300 mg/kg | – |
| CSc1nnc(-c2ccccc2OCc2ccccc2)o1 | – | – | 91.2 mg/kg | > 100 mg/kg | > 300 mg/kg | – |
| Nc1nnc(-c2ccccc2OCc2ccc(F)cc2)o1 | – | – | 2.5 mg/kg | 3.3 mg/kg | > 300 mg/kg | 2.5 mg/kg |
| c1ccc(COc2ccccc2-c2nnc(SCc3ccccc3)o2)cc1 | – | – | > 100 mg/kg | > 100 mg/kg | > 300 mg/kg | – |
